Test [1] has as its target Nitric oxide synthase (endothelial, human recombinant) eNOS (Homo sapiens, UniProt P29474). The experiment in a line: Human eNOS enzyme assay ([3H]L-arginine to [3H]L-citrulline). As to conditions: read-out: heNOS IC50. Format: biochemical.
In test [2] the test system is Rats with L5/L6 spinal nerve ligation. The experiment in a line: Chung Spinal Nerve Ligation model, thermal hyperalgesia. Type of test: in vivo, rat. As to conditions: standard dosings 3, 10, and 30 mg/kg injected IP.
The target in test [3] is Recombinant human inducible NOS (iNOS) (Homo sapiens, UniProt P35228). The experiment in a line: Human iNOS enzyme assay, radiometric. Type of test: biochemical. As to conditions: read-out: hiNOS IC50.
Sequence of Recombinant human inducible NOS (iNOS) (P35228 whole entry): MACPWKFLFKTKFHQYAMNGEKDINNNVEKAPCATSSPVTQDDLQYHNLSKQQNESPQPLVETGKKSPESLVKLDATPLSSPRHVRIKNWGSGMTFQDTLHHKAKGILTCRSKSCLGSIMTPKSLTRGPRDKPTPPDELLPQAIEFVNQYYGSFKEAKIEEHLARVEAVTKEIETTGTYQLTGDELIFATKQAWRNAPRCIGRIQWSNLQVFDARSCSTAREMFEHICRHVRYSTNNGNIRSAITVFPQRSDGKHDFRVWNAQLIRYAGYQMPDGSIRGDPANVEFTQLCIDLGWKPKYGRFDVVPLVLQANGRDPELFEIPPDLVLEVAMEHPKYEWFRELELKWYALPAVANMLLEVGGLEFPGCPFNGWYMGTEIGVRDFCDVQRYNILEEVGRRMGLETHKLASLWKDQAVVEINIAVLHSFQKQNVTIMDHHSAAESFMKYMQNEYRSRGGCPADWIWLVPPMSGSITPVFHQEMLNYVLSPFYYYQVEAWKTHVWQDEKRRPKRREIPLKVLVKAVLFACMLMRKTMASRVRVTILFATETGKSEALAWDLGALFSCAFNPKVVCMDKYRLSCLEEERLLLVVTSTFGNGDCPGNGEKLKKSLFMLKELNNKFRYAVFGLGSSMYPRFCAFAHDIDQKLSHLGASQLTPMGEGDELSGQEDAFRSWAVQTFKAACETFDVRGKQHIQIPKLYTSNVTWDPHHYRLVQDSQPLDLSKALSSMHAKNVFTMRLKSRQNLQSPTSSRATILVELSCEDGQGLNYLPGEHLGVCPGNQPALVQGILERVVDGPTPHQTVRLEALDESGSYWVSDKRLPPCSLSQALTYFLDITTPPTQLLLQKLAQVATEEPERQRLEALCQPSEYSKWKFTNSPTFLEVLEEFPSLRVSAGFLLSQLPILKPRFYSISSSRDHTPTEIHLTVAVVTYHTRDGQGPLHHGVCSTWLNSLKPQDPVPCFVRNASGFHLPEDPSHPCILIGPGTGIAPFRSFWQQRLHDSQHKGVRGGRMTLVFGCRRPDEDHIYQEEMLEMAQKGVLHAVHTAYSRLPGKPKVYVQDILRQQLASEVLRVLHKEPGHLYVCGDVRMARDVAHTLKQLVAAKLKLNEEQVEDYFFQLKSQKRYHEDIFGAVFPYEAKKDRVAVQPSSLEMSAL
For another test, the target named is eNOS (Rat) (Rattus norvegicus, UniProt Q62600). Put plainly: eNOS (Rat) enzyme assay. Format: biochemical. The note with it: values in parentheses, read-out: eNOS IC50 (rodent data in parentheses).
Sequence of eNOS (Rat) (Q62600 2-1202): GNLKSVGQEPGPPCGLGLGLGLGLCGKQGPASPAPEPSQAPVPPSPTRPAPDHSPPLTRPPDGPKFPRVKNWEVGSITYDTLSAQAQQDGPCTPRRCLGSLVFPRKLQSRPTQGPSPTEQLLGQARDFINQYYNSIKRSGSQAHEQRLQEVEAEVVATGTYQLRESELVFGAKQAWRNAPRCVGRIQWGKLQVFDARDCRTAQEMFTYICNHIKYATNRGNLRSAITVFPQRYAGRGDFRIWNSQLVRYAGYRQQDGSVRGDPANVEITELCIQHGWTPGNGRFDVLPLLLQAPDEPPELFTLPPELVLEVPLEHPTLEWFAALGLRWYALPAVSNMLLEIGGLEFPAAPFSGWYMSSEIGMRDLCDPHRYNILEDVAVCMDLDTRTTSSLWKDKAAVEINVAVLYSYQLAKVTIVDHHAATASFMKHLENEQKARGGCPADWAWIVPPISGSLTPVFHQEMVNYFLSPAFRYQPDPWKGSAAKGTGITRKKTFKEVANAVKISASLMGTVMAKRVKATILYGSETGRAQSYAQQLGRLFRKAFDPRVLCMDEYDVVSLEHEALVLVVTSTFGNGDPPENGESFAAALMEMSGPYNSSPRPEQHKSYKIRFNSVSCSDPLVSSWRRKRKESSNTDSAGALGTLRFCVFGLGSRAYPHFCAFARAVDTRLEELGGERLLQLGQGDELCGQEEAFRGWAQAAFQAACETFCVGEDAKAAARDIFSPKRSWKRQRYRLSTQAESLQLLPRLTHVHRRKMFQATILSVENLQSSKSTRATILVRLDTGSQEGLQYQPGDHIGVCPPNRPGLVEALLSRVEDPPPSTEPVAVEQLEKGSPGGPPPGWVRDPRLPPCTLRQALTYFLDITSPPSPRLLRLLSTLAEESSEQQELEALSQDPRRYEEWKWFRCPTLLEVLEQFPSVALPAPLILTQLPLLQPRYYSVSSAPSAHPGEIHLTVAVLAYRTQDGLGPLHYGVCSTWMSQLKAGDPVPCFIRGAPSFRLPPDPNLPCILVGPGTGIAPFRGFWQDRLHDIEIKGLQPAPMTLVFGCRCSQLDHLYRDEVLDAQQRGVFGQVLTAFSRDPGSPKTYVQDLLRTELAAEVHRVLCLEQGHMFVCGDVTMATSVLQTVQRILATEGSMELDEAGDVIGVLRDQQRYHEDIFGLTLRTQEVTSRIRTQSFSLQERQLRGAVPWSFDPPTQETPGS
The target of the next test is nNOS (Rat) (Rattus norvegicus, UniProt P29476). The experiment in a line: nNOS (Rat) enzyme assay. Type of test: biochemical. As to conditions: values in parentheses. How it is done:
nNOS (Rat), eNOS (Rat) and iNOS (Mouse) Enzyme Assay Recombinant rat or mouse NO synthases (iNOS, eNOS, nNOS) were expressed in Sf9 cells (Sigma), 36 mg prot/ml (Bradford). […] Inhibition of NOS was determined by measuring the formation of L-[3H] citrulline from L-[3H] arginine. […] Stop buffer:100 mM Hepes, pH 5.5, 3 mM EDTA, 3 mM EGTA.

For test [4], the target named is Nitric oxide synthase (neuronal, human recombinant) nNOS (Homo sapiens, UniProt P29475). Put plainly: Human nNOS enzyme assay ([3H]L-arginine to [3H]L-citrulline). Type of test: biochemical. The note with it: for IC50: read-out: hnNOS IC50.
Sequence of Nitric oxide synthase (neuronal, human recombinant) nNOS (P29475 whole entry): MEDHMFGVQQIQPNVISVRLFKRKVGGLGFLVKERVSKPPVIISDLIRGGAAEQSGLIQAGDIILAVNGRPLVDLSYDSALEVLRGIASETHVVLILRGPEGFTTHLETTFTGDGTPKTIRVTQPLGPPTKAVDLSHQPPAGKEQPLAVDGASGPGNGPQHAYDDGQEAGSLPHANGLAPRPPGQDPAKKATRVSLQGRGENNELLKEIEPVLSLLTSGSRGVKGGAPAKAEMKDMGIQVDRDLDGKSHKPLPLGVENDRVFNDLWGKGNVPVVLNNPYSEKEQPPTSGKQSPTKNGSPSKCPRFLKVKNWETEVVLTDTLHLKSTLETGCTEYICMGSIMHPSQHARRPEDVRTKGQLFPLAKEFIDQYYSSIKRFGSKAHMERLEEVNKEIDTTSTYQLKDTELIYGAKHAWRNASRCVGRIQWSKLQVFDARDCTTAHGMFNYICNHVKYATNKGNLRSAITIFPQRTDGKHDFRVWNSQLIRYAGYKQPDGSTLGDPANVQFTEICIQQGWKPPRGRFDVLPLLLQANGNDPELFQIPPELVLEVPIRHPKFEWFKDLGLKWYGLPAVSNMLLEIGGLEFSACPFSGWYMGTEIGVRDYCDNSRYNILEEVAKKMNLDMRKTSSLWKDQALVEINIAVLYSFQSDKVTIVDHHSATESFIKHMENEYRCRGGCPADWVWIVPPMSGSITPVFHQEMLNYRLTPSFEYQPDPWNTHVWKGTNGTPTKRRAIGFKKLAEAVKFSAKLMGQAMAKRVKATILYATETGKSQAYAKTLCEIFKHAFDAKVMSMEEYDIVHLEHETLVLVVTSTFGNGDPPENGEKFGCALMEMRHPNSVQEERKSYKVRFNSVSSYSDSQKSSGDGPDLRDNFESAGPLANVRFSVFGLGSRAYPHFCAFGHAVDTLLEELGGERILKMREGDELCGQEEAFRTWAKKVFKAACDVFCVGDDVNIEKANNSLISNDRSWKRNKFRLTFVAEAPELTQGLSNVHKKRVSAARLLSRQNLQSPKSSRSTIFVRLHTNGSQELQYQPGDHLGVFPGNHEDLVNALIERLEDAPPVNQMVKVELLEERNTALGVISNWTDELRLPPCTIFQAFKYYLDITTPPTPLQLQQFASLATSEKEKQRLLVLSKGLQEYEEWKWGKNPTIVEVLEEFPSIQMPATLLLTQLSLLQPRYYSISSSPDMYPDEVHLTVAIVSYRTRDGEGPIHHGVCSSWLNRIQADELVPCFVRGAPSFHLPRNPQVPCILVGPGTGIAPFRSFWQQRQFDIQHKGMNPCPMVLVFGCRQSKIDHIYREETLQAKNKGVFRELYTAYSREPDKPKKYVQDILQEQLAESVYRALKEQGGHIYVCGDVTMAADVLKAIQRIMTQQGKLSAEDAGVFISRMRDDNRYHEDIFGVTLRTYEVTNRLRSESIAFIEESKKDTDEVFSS
Test [5] has as its system Male, Sprague Dawley rats. Put plainly: Porreca model of allodynia (inflammatory soup onto the dura, hindpaw von Frey). Format: in vivo, rat.
Test [6] deals with Rats with L5/L6 spinal nerve ligation. The experiment in a line: Chung Spinal Nerve Ligation model, tactile allodynia. Format: in vivo, rat. The note with it: standard dosings 3, 10, and 30 mg/kg injected IP.
Test [7] has as its system sciatic nerve cuff-implanted rats. Put plainly: Sciatic Nerve Cuff model, hind leg weight bearing. Format: in vivo, rat. The procedure: (§1) The method of inducing peripheral neuropathy is by implantation of a single cuff around the sciatic nerve, modified from the method described by Mosconi and Kruger (1996), where two to four cuffs were used. Rats are anaesthetized with a combination of ketamine (5 mg/100 g) and xylazine (0.5 mg/100 g), i.p. The left sciatic nerve is exposed after blunt dissection of overlying muscle and freed from surrounding tissue. A cuff made of a 2 mm segment of polyethylene (PE-90) tubing (Intramedic PE-90, Clay Adams, Division of Becton Dickinson, Parsippany, N.J.) slit longitudinally is fit around the nerve. Subsequently the muscle is sutured, and skin closed using suture clips. Antibiotic ointment (Nitrofurazone 0.2%) is applied over the wound, and 0.03 ml of the antibiotic Tribrissen 24% (trimethoprim-sulfadiazine) is injected subcutaneously. Animals are placed under a heating lamp until they recovered from the anaesthetic and then returned to their home cage.

Another test has as its target iNOS (Mouse) (Mus musculus, UniProt P29477). Put plainly: iNOS (Mouse) enzyme assay. Type of test: biochemical. The note with it: values in parentheses, read-out: iNOS IC50 (rodent data in parentheses). How it is done:
nNOS (Rat), eNOS (Rat) and iNOS (Mouse) Enzyme Assay Recombinant rat or mouse NO synthases (iNOS, eNOS, nNOS) were expressed in Sf9 cells (Sigma), 36 mg prot/ml (Bradford). […] Inhibition of NOS was determined by measuring the formation of L-[3H] citrulline from L-[3H] arginine. […] Stop buffer:100 mM Hepes, pH 5.5, 3 mM EDTA, 3 mM EGTA. Enzyme and inhibitor were pre-incubated for 35 min in the presence of NADPH before addition of arginine to initiate the reaction.

The subject of test [8] is sciatic nerve cuff-implanted rats. Put plainly: Sciatic Nerve Cuff model, mechanical allodynia (von Frey hair). The note with it: i.p 30 mg/kg. Type of test: in vivo, rat. The procedure:
The Sciatic Nerve Cuff model in rats (Mosconi and Kruger, 1996, Pain 64, 37-57) involves implantation of a plastic cuff around the sciatic nerve that results in painful neuropathy several days after surgery and induction of nociceptive afterdischarge in spinal neurons after innocuous peripheral mechanical stimulation (G. M. Pitcher and J. L. Henry). Mechanical allodynia is measured in the ipsilateral paw using calibrated von Frey hair testing. A single acute application of the drug (i.p. dosing) reverses the post-cuff pain thresholds to mechanical stimulus towards normal threshold levels.
The study utilized a cuff model (Mosconi T, Kruger L. Fixed-diameter polyethylene cuffs applied to the rat sciatic nerve induce a painful neuropathy: ultrastructural morphometric analysis of axonal alterations. Pain 64: 37-57, 1996) to examine the therapeutic effectiveness of the test compound 11 on a battery of behavioural endpoints in rats.
The testing chamber consists of a 30×30×30 cm Plexiglas box with a clear Plexiglas floor. This floor contained 0.5 cm diameter holes that are spaced 1.5 cm apart, and is positioned over a mirror, which allows an unobstructed view of the rat paws. Animals are placed in the testing chamber and allowed to acclimatize for 30 min prior to testing. von Frey filaments (Stoelting Co., Illinois, USA) are applied to the soft tissue of the plantar surface of the hind paw to determine the withdrawal threshold. The first filament applied corresponds to a force of 4.31 grams. […] A 50% response threshold is calculated according to the response pattern observed (described by Chaplan et al. 1994). […]
A baseline reading with von Frey hairs is taken before model induction. Thus rats are acclimatized to the testing chamber and readings are taken for at least three days for the baseline before any surgery. After the surgery von Frey hair testing for any development of mechanical sensitivity is assessed. […]

Test [9] has the same test system. The experiment in a line: Sciatic Nerve Cuff model, cold plate test (paw lifts). Type of test: in vivo, rat. The note with it: daily i.p. 30 mg/kg; cold plate 4±2° C.; 10-minute test period; average.
Text: The animal will be placed into a box of approximately 12×12×12 inches. The bottom is filled with an ice-saline mixture and a metal plate is placed just on top of this mixture. […]
[…] Post-testing treatment—the feet will be wiped with a soft cloth or paper towel and the animal will be placed back in its home cage for five minutes. An allowance will be made for the time necessary to transfer to as well as adaptation to the next testing apparatus.
as §1, with “Animals are placed under a heating lamp until they recovered from the anaesthetic and then returned to their home cage.” left out

In test [10] the test system is patients with cardiogenic shock. The note with it: randomized trial of 30 patients; reduced from 67%; cited from earlier work.
For test [11], the system named is patients with persistent shock. As to conditions: 11 patients with persistent shock; up to 30 days; cited from earlier work.
The subject of test [12] is migraine patients. As to conditions: human migraine; single i.v. administration; cited from earlier work.
The subject of test [13] is migraine patients. The note with it: human migraine; open pilot study; cited from earlier work.
[14] abbreviates: human recombinant eNOS, values without parentheses.
Setting [15] is: human recombinant nNOS, values without parentheses.

Like-named read-outs stand apart in the source and are kept apart here.

What is called IC50 is the concentration at which inhibition is half-maximal.

Sequence of Nitric oxide synthase (endothelial, human recombinant) eNOS (P29474 2-1203): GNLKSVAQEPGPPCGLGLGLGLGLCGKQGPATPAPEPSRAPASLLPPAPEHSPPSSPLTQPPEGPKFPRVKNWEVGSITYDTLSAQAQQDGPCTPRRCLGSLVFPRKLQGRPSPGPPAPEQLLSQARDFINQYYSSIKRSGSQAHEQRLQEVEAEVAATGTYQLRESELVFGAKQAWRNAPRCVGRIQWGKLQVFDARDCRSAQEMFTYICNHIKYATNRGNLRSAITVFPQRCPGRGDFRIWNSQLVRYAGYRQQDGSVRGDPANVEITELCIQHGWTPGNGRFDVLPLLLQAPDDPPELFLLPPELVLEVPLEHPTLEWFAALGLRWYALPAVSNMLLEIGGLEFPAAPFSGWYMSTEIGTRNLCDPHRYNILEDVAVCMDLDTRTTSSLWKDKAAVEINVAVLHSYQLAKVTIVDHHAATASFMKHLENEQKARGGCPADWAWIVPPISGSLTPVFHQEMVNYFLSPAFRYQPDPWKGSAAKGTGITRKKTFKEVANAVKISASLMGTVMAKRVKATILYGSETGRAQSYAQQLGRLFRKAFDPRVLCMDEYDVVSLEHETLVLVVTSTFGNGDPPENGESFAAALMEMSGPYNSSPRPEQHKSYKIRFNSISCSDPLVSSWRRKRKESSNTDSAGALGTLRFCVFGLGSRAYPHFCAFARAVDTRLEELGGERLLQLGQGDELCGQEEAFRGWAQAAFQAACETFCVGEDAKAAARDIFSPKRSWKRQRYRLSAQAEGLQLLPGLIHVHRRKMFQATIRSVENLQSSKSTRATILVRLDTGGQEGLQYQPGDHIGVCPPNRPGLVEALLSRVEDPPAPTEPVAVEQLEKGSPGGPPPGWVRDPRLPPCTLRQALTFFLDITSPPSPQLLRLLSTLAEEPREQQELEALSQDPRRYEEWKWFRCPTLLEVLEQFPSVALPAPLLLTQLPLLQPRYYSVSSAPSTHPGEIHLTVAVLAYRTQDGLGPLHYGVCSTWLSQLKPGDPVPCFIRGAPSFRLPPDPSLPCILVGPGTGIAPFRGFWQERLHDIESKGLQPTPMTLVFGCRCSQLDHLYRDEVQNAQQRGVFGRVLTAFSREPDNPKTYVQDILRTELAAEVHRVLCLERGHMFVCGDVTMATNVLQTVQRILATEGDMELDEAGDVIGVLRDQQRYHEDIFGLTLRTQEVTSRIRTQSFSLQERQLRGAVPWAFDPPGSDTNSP

As to `CN1CCCC1CCN1CCCc2cc(NC(=N)c3cccs3)ccc21` (single isomer, unassigned) [Example 23, N-(1-(2-(1-Methylpyrrolidin-2-yl)ethyl)-1,2,3,4-tetrahydroquinolin-6-yl)thiophene-2-carboximidamide], the IC50 in test [1] (setting [14]) was 41 µM; in test [3], greater than 100000 nM; at eNOS (Rat), greater than 100 µM; in [4] (setting [15]), 260 nM. Besides, the “antihyperalgesic effect in the Chung model” value in [2] is given as “clear antihyperalgesic effect”. Also, the “Selectivity eNOS/nNOS (rodent data in parentheses)” value at nNOS (Rat) (rodent enzymes) is listed as “(>434)”. In addition, the “Selectivity eNOS/nNOS” value in [4] (human enzymes, ratio of eNOS IC50 to nNOS IC50) amounted to 157. Moreover, in test [5] (30 mg/kg p.o. 15 minutes prior to IS), the “hindpaw allodynia after inflammatory soup (IS)” value is reported as “reverses the development of hindpaw allodynia”. For the same compound, in test [6], the “antiallodynic effect in the Chung model” value is recorded as “antiallodynic effect”.
As to `CN(C)CCN1CCCc2cc(NC(=N)c3cccs3)ccc21` [Example 11, N-(1-(2-(dimethylamino)ethyl)-1,2,3,4-tetrahydroquinolin-6-yl)thiophene-2-carboximidamide], the “hind paw weight placement 24 hours after the first dose” value in test [7] (24 hours after the first dose) is “preferential placement on the contralateral hind paw”. The “hind paw weight placement on successive days” value in [7] (drug administration on successive days) was “shift in hind paw weight placement toward even distribution on each day”. The “hind paw weight placement, first day” value in test [7] (first day, two hours and four hours after drug administration) is reported as “shift in weight placement toward even distribution between the two hind paws”. Further, the half-maximal inhibitory concentration (IC50) in test [1] (setting [14]) is 37.7 µM; in test [1], 58.7 µM; in [3] (human recombinant iNOS, values without parentheses), 850 nM; at eNOS (Rat), greater than 100 µM; on nNOS (Rat) (rat nNOS, read-out: nNOS IC50 (rodent data in parentheses)) it was 460 nM; in [4] (setting [15]), 253 nM. The 50% inhibitory concentration (IC50) was 430 nM in test [4] and greater than 100 µM at iNOS (Mouse). Also, the “antihyperalgesic effect in the Chung model” value in test [2] is given as “clear antihyperalgesic effect”. Besides, the “tactile hypersensitivity, pre-injection reading on the second drug-administration day” value in test [8] (latent effect of the first dose) is reported as “sustained reversal of the tactile hypersensitivity”. Moreover, in test [8] (successive days), the “tactile sensitivity on successive days of administration” value is “no further overt effect”. Also, the “tactile hypersensitivity (von Frey) after first injection” value in test [8] (two and four hours after the first injection) was “reversed the tactile hypersensitivity”. The “paw lifts in the cold plate test” value in test [9] was “approximately nine”.
In the case of `COC(=O)[C@@H](N)CCCNC(=N)N[N+](=O)[O-]` [L-NAME, N^G-Nitro-L-arginine methyl ester], the patient mortality in [10] is given as 27%.
As for `CNC(=N)NCCC[C@H](N)C(=O)O` [L-NMMA, N^G-monomethyl-L-arginine], in test [11], the survival rate is recorded as 72%. In the test on migraine patients [12], the response rate was 67%. Besides, in test [5] (10 mg/kg i.v 15 minutes prior to IS), the “hindpaw allodynia after inflammatory soup (IS)” value is recorded as “reverses the development of hindpaw allodynia”.
Consider `C/C1=C2/[N-][C@H]([C@H](CC(N)=O)[C@@]2(C)CCC(=O)NC[C@@H](C)OP(=O)([O-])O[C@H]2[C@@H](O)[C@@H](n3cnc4cc(C)c(C)cc43)O[C@@H]2CO)[C@]2(C)N=C(/C(C)=C3N=C(/C=C4N=C1[C@@H](CCC(N)=O)C\4(C)C)[C@@H](CCC(N)=O)[C@]\3(C)CC(N)=O)[C@@H](CCC(N)=O)[C@]2(C)CC(N)=O.[Co+3].[OH-]` [hydroxycobalamin], for which the “patients with a reduction in the frequency of migraine attack of 50%” value in the test with migraine patients [13] is 53%.

These data come from patent US8173813B2, “Quinolone and tetrahydroquinolone and related compounds having NOS inhibitory activity” (NeurAxon, Inc., priority 2007, dated 2012).
